In patent US11548894B2, “Benzamide or benzamine compounds useful as anticancer agents for the treatment of human cancers” (The Board of Regents of the University of Texas System, priority 2015, dated 2023):
Where a name gives a salt, the structure may show the parent alone.

Tested on: Mut6 cells (TD-NSC)
Assay: luminescence-based Celltiter-Glo cell viability assay (ATP levels) on Mut6 tumor derived neuronal stem cells
Parameters: species or system mouse
Settings: ATP activity as measure of viability, 96 hours
Text: A mouse colony with 100% incidence of GBM and with conditional knockout of p53, pTEN and NF1 genes (Mut6; glioblastoma) was used to isolate primary neuronal stem cells from GBM tumors cultured in 5% Oxygen and in serum free media with defined growth factors. Primary cells from multiple tumors were pooled for high throughput screening with controls against the University of Texas Southwestern (UTSW) compound file, which encompasses ˜200,000 synthetic compounds that represent a large chemical space from several commercial vendors, including 1200 marketed drugs from the Prestwick Chemical Library®, and 600 compounds that went to pre-clinical tests from the NIH library.
A luminescence-based Celltiter-Glo® assay was performed to measure cell viability, using ATP levels as the readout. In brief, opaque-walled multiwell plates with Mut6 cells in culture medium (25 μl per well, 384-well plates) were prepared. Control wells containing medium without cells were prepared to obtain a value for background luminescence. Test compounds were added to experimental wells, and incubated according to culture protocol. The plate and its contents were incubated at 37° C., 5% […] for 96 hours. An ATP standard curve was generated immediately prior to adding the CellTiter-Glo® Reagent. A volume of CellTiter-Glo® Reagent equal to the volume of cell culture medium present in each well (25 μl of reagent to 25 μl of medium containing cells for a 384-well plate) was added. The contents were mixed for 2 minutes on an orbital shaker to induce cell lysis. The plate was allowed to incubate at room temperature for 10 minutes to stabilize the luminescent signal and luminescence recorded. (e.g. GloMax®, Lumistar, SPECTROstar, PHERAstar FS).
Compound 4C12 served as initial lead compound for analog development and for additional studies. […] See Wager, T T et al, “Moving beyond rules: the development of a central nervous system multi-parameter-optimization (CNS MPO) approach to enable alignment of drug-like properties,” ACS Chem. Neurosci. 1(6): 435-49 (2010). IC50 curves for the analog compounds plotted as ATP activity (y axis, a measure of viability) vs. concentration (nM) (x-axis) are shown in FIG. 9.

EC50 (TD-NSC) (nM) | SMILES
Not Active | CC(C)(C)OC(=O)N1CCN(CCNC(=O)c2ccc(Sc3ccc(F)cc3)c([N+](=O)[O-])c2)CC1 [DS-2-127, Tert-butyl 4-(2-(4-((4-fluorophenyl)thio)-3-nitrobenzamido)ethyl)piperazine-1-carboxylate]

Same assay, conditions: ATP activity as measure of viability, 96 hours; Hydrochloride; read-out: EC50 (TD-NSC)

EC50 [nM] | SMILES
95 | CCN1CCCC1CNC(=O)c1ccc(Sc2ccc(F)cc2)c([N+](=O)[O-])c1 (centres unmarked) [DS-1-191, N-((1-ethylpyrrolidin-2-yl)methyl)-4-((4-fluorophenyl)thio)-3-nitrobenzamide Hydrochloride]

Same assay, conditions: Mus musculus, 96 h, ATP activity as measure of viability, 96 hours; read-out: EC50 (TD-NSC)

SMILES | EC50 [nM]
CCN1CCCC1CNC(=O)c1ccc(Sc2ccc(C)c(C)c2)c([N+](=O)[O-])c1 (centres unmarked) [DS-1-299, 4-((3,4-dimethylphenyl)thio)-N-((1-ethylpyrrolidin-2-yl)methyl)-3-nitrobenzamide] | 169
CCN1CCCC1CNC(=O)c1ccc(Sc2ccc(F)cc2)nc1 (centres unmarked) [DS-1-209, N-((1-ethylpyrrolidin-2-yl)methyl)-6-((4-fluorophenyl)thio)nicotinamide] | > 1000
CCN1CCCC1CNC(=O)c1ccc(Sc2ccc(C(C)C)cc2)c([N+](=O)[O-])c1 (centres unmarked) [DS-1-123, N-((1-ethylpyrrolidin-2-yl)methyl)-4-((4-isopropylphenyl)thio)-3-nitrobenzamide] | 516
C#CCOc1ccc(Sc2ccc(C(=O)NCCNCC)cc2[N+](=O)[O-])cc1 [DS-2-111, N-(2-(ethylamino)ethyl)-3-nitro-4-((4-(prop-2-yn-1-yloxy)phenyl)thio)benzamide] | > 1000
C#CCOc1ccc(Sc2ccc(C(=O)NCC3CCCN3CC)cc2[N+](=O)[O-])cc1 (centres unmarked) [DS-1-261, N-((1-ethylpyrrolidin-2-yl)methyl)-3-nitro-4-((4-(prop-2-yn-1-yloxy)phenyl)thio)benzamide] | 269
CCN1CCCC1CNC(=O)c1ccc(Sc2ccc(N)cc2)c([N+](=O)[O-])c1 (centres unmarked) [DS-1-177, 4-((4-aminophenyl)thio)-N-((1-ethylpyrrolidin-2-yl)methyl)-3-nitrobenzamide] | 340
C#CCN(CC)CCNC(=O)c1ccc(Oc2ccc(C(=O)c3ccccc3)cc2)c([N+](=O)[O-])c1 [DS-2-097, 4-(4-benzoylphenoxy)-N-(2-(ethyl(prop-2-yn-1-yl)amino)ethyl)-3-nitrobenzamide] | > 1000
CCN1CCCC1CNC(=O)c1ccc(OCc2ccc(C3(C(F)(F)F)N=N3)cc2)c([N+](=O)[O-])c1 (centres unmarked) [ww3-13] | > 1000
C#CCN(CC)CCNC(=O)c1ccc(Oc2ccccc2C(=O)c2ccccc2)c([N+](=O)[O-])c1 [DS-2-101, 4-(2-benzoylphenoxy)-N-(2-(ethyl(prop-2-yn-1-yl)amino)ethyl)-3-nitrobenzamide] | > 1000
C#CCOc1ccc(Sc2ccc(C(=O)NCCN(CC)Cc3ccc(C(=O)c4ccccc4)cc3)cc2[N+](=O)[O-])cc1 [DS-2-093, N-(2-((4-benzoylbenzyl)(ethyl)amino)ethyl)-3-nitro-4-((4-(prop-2-yn-1-yloxy)phenyl)thio)benzamide] | > 1000
CCOC(=O)c1cc(F)ccc1Sc1ccc(C(=O)NCC2CCCN2CC)cc1[N+](=O)[O-] (centres unmarked) [DS-1-265, Ethyl 2-((4-(((1-ethylpyrrolidin-2-yl)methyl)carbamoyl)-2-nitrophenyl)thio)-5-fluorobenzoate] | > 1000
O=C(NCc1ccccn1)c1ccc(Sc2ccc(F)cc2)c([N+](=O)[O-])c1 [DS-1-023, 4-((4-fluorophenyl)thio)-3-nitro-N-(pyridin-2-ylmethyl)benzamide] | > 1000
C#CCN(CCNC(=O)c1ccc(Sc2ccc(F)cc2)c([N+](=O)[O-])c1)CCOC(=O)c1ccc(C(=O)c2ccccc2)cc1 [ww3-80, 2-((2-(4-((4-fluorophenyl)thio)-3-nitrobenzamido)ethyl)(prop-2-yn-1-yl)amino)ethyl 4-benzoylbenzoate] | 161
CCN1CCCC1CNC(=O)c1ccc(Sc2ccc(F)cc2)c(N)c1 (centres unmarked) [DS-1-225, 3-amino-N-((1-ethylpyrrolidin-2-yl)methyl)-4-((4-fluorophenyl)thio)benzamide] | 192
CCN1CCCC1COC(=O)c1ccc(Sc2ccc(F)cc2)c([N+](=O)[O-])c1 (centres unmarked) [DS-1-287, (1-ethylpyrrolidin-2-yl)methyl 4-((4-fluorophenyl)thio)-3-nitrobenzoate] | > 1000
CN(CCN)CCNC(=O)c1ccc(Sc2ccc(F)cc2)c([N+](=O)[O-])c1 [DS-1-195, N-(2-((2-aminoethyl)(methyl)amino)ethyl)-4-((4-fluorophenyl)thio)-3-nitrobenzamide] | > 1000
CCN1CCCC1CNC(=O)c1ccc(Sc2cccc(N)c2)c([N+](=O)[O-])c1 (centres unmarked) [JCH-109, 4-((3-aminophenyl)thio)-N-((1-ethylpyrrolidin-2-yl)methyl)-3-nitrobenzamide] | 301
CCN1CCCC1CNC(=O)c1ccc(Sc2ccccn2)c([N+](=O)[O-])c1 (centres unmarked) [DS-1-071, N-((1-ethylpyrrolidin-2-yl)methyl)-3-nitro-4-(pyridin-2-ylthio)benzamide] | 419

Now from value to compound:

EC50 [nM] | SMILES
160 | CCN1CCCC1CNC(=O)c1ccc(Sc2ccccc2O)c([N+](=O)[O-])c1 (centres unmarked) [JCH-143, N-((1-ethylpyrrolidin-2-yl)methyl)-4-((2-hydroxyphenyl)thio)-3-nitrobenzamide]
155 | CCN1CCCC1CNS(=O)(=O)c1ccc(Sc2ccc(F)cc2)c([N+](=O)[O-])c1 (centres unmarked) [DS-2-055, N-((1-ethylpyrrolidin-2-yl)methyl)-4-((4-fluorophenyl)thio)-3-nitrobenzenesulfonamide]
139 | CCN1CCCC1CNC(=O)c1ccc(Sc2cccc(O)c2)c([N+](=O)[O-])c1 (centres unmarked) [JCH-140, N-((1-ethylpyrrolidin-2-yl)methyl)-4-((3-hydroxyphenyl)thio)-3-nitrobenzamide]
129 | CCN1CCCC1CNC(=O)c1ccc(Sc2ccc(Cl)c(C(F)(F)F)c2)c([N+](=O)[O-])c1 (centres unmarked) [DS-2-143, 4-((4-chloro-3-(trifluoromethyl)phenyl)thio)-N-((1-ethylpyrrolidin-2-yl)methyl)-3-nitrobenzamide]
119 | CCN1CCCC1CNC(=O)c1ccc(Sc2ccccc2Cl)c([N+](=O)[O-])c1 (centres unmarked) [JCH-111, 4-((2-chlorophenyl)thio)-N-((1-ethylpyrrolidin-2-yl)methyl)-3-nitrobenzamide]
118 | CCN1CCCC1CNC(=O)c1ccc(Sc2ccc(F)c(F)c2)c([N+](=O)[O-])c1 (centres unmarked) [DS-1-067, 4-((3,4-difluorophenyl)thio)-N-((1-ethylpyrrolidin-2-yl)methyl)-3-nitrobenzamide]
102 | CCN1CCCC1CNC(=O)c1ccc(Sc2ccccc2F)c([N+](=O)[O-])c1 (centres unmarked) [DS-1-075, N-((1-ethylpyrrolidin-2-yl)methyl)-4-((2-fluorophenyl)thio)-3-nitrobenzamide]
93 | CCN1CCCC1CNC(=O)c1ccc(Sc2ccc(Cl)c(Cl)c2)c([N+](=O)[O-])c1 (centres unmarked) [DS-1-291, 4-((3,4-dichlorophenyl)thio)-N-((1-ethylpyrrolidin-2-yl)methyl)-3-nitrobenzamide]
86 | CCN1CCCC1CNC(=O)c1ccc(Sc2cccc(C)c2)c([N+](=O)[O-])c1 (centres unmarked) [DS-1-305, N-((1-ethylpyrrolidin-2-yl)methyl)-3-nitro-4-(m-tolylthio)benzamide]
62 | CCN1CCCC1CNC(=O)c1ccc(Sc2ccc(Br)cc2)c([N+](=O)[O-])c1 (centres unmarked) [DS-1-185, 4-((4-bromophenyl)thio)-N-((1-ethylpyrrolidin-2-yl)methyl)-3-nitrobenzamide]
55 | CCN1CCCC1CNC(=O)c1ccc(Sc2ccc(C)cc2)c([N+](=O)[O-])c1 (centres unmarked) [DS-1-271, N-((1-ethylpyrrolidin-2-yl)methyl)-3-nitro-4-(p-tolylthio)benzamide]
49 | C#CCN(CC)CCNC(=O)c1ccc(Sc2ccc(F)cc2)c([N+](=O)[O-])c1 [DS-2-035, N-(2-(ethyl(prop-2-yn-1-yl)amino)ethyl)-4-((4-fluorophenyl)thio)-3-nitrobenzamide]
36 | CCN1CCCC1CNC(=O)c1ccc(Oc2ccc(F)cc2)c([N+](=O)[O-])c1 (centres unmarked) [DS-1-103, N-((1-ethylpyrrolidin-2-yl)methyl)-4-(4-fluorophenoxy)-3-nitrobenzamide]
15 | CCN1CCCC1CN(C)C(=O)c1ccc(Sc2ccc(F)cc2)c([N+](=O)[O-])c1 (centres unmarked) [DS-2-061, N-((1-ethylpyrrolidin-2-yl)methyl)-4-((4-fluorophenyl)thio)-N-methyl-3-nitrobenzamide]

Same assay, conditions: Mus musculus; ATP activity as measure of viability, 96 hours; read-out: EC50 (TD-NSC)

SMILES | EC50 [nM]
CCN1CCCC1CNC(=O)c1ccc(Sc2ccc([N+](=O)[O-])cc2)c([N+](=O)[O-])c1 (centres unmarked) [DS-1-137, N-((1-ethylpyrrolidin-2-yl)methyl)-3-nitro-4-((4-nitrophenyl)thio)benzamide] | 69
